Where two headings read alike, the source gives them in different places.
Tests used:
Pf protein synthesis = assay: In vitro metabolic protein labelling with 35S-Methionine and Cysteine; format: cell-based; conditions: Plasmodium falciparum, 12 h treatment; for inhibition at 50 µM / inhibition at 250 µM: RPMI^-gln medium; for inhibition at 1000 µM: 1 mM, RPMI^Pgln medium
Description: After 9 h of radiolabelling, parasites were isolated by saponin lysis, resuspended in 50 mM Tris pH 8.0 containing 100 mM NaCl, 2% glycerol and 0.1% Triton X-100, and lysed by sonication. The lysates were resolved on 10% SDS-PAGE gel and phosphorimager scanning was carried out to examine the radiolabelling of proteins using Amersham Typhoon 5 Biomolecular Imager. In parallel, 10 μl of the lysates were spotted on Whatman filter paper grade I, dried and washed subsequently with hot and cold 10% (w/v) trichloroacetic acid to remove free amino acids and charged-tRNAs, followed by diethyl ether to remove lipids. The filter papers were then placed in Ultima Gold XR scintillation cocktail and the radioactive counts were measured using MicroBeta^2 Microplate Counters. All these experiments were performed with identical parasitemia and hematocrit between the untreated and treated groups by equally splitting the infected cultures.

[1] = biological target: T1, rPfGS (Plasmodium falciparum glutamine synthetase) (Plasmodium falciparum, UniProt C0H551); assay: Recombinant PfGS enzyme assay (HPLC glutamine formation / Pi release) and inhibition; format: biochemical
T1 sequence (C0H551 1-543): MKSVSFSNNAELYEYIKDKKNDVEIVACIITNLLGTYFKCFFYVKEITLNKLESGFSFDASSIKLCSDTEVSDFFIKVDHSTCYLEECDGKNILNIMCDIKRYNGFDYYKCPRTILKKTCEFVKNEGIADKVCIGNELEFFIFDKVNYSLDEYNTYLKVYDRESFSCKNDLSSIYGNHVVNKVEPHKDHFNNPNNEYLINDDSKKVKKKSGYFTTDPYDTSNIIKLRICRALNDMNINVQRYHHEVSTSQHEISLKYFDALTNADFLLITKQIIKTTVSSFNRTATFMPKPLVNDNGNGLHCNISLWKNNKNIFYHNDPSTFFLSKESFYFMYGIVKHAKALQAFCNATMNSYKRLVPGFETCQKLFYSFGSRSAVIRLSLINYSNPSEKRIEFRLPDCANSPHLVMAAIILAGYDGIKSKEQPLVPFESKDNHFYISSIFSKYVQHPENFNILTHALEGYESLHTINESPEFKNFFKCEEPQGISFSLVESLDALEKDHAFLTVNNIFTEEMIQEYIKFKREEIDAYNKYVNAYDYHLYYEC
Description: (§1) Enzyme assays were carried out by performing HPLC analysis for glutamine formation as well as by quantifying the release of inorganic phosphate (Pi). The enzyme assays were carried out at 37° C. for 1 h in a total volume of 25 µl and the assay mixtures contained 50 mM Tris buffer pH 8.0 with 4 mM glutamate, 50 mM NaCl, 50 mM NH4Cl, 10 mM ATP and 50 mM MgCl2 and 0.5-1.0 μg of recombinant protein. The amino acids were extracted by vortexing the assay mixtures with 50 μl of water and 375 μl of acetonitrile, followed by incubation in ice for 30 min and centrifugation at 20,000 g for 20 min at 4° C. The supernatant was collected, lyophilized and dissolved in 50 μl of water. […] Mobile phase consisted of Solvent A: 10 mM Na2HPO4, and 10 mM Na2B4O7, pH 8.2 and solvent B: methanol: acetonitrile: water (45:45:10 v/v). […] For every molecule of glutamine formed, one molecule of ATP is hydrolysed to ADP and Pi. […] For Pi assays, the assay mixtures incubated at 37° C. for 1 h were diluted with water to 200 μl, followed by the addition of 30 μl of phosphate reagent of Phosphate Assay Kit (Abcam, ab65622). After vortexing, the absorbance was measured at 650 nm as per the manufacturer's protocol. Individual glutamate-and protein-omitted reactions were used as controls for all the assays.

Pf clinical isolates = assay: Inhibition studies with Pf clinical samples (3H-hypoxanthine uptake); format: cell-based, Plasmodium falciparum; conditions: in vitro cultures without or with glutamine; n=7 clinical isolates
Description: The collection of clinical samples was carried out by withdrawing blood from febrile patients. Pf infections were confirmed by examining Giemsa-stained thick and thin blood smears under light microscope, and by performing rapid diagnostic test and PCR for 18S rRNA. The infected blood was collected in heparinized vacutainers and the subsequent procedures were carried out in BSL-2 facility under sterile conditions. […] The packed cells were then resuspended in the same medium and the hematocrit was adjusted to 5%. The cultures were treated with different concentrations of MSO/PPT and ^3H-hypoxanthine addition was carried out after 3 h of MSO/PPT addition to assess the parasite growth. The cultures were incubated following the standard conditions of Pf maintenance and the experiments were performed for each clinical isolate in RPMI^-gln as well as in RPMI^Pgln. All these experiments were typically carried out in a final culture volume of 1.2 ml for the respective concentrations of MSO or PPT. Parasite growth assessment was also verified by examining the Giemsa-stained smears.

[2] = tested on: Pf asexual stages (Pf3D7 cultures); assay: MSO and PPT inhibition of in vitro growth of Pf cultures; format: cell-based, Plasmodium falciparum; conditions: for IC50: Plasmodium falciparum, read-out: IC50 for inhibiting Pf growth
Description: The parasites were subcultured with fresh RBCs when the culture parasitemia reached around 2-5%. […] The isolated parasites were washed thoroughly with ice cold PBS for four times to remove the carry-over of proteins from RBC lysates. ART-resistant PfCam3.I^R539T strain was also maintained in a similar fashion. Giemsa-stained smears were routinely prepared to examine the parasite growth and parasitemia. Parasite growth assessment for experiments was carried out by Giemsa-stained smears, flow cytometry and ^3H-hypoxanthine uptake. […] The radioactive counts were measured using MicroBeta^2 Microplate Counters (PerkinElmer).

[3] = tested on: ART-resistant PfCam3.I^R539T strain; assay: Ring-stage survival assay (RSA) with ART-resistant strain; format: cell-based, Plasmodium falciparum
Description: PfCam3.I^R539T strain was maintained under standard conditions. When the parasitemia reached around 2% with predominant ring stages, the cultures were subjected to two rounds of tight synchronization within a span of 3 h in the previous cycle, followed by one additional synchronization in the subsequent cycle when they are in early rings. […] The medium change was carried out at 48 and 72 h, and after 96 h, the culture parasitemia was examined by Giemsa-stained smears and flow cytometry. For growth assessment by ^3H-hypoxanthine uptake, the label was added at 72 h and the cells were harvested at 96 h. The experiments were carried out independently in RPMI^-gln and RPMI^Pgln medium.

Pf parasites = conditions: RPMI^-gln medium; 50 and 250 μM MSO, 12 h
Description: Parasite pellets were then extracted with 10 volumes of 50% methanol in water (v/v), followed by lyophilisation and solubilizing the lyophilized extracts with 50 μl of water. […] For LC-MS/MS, the parasite extracts were derivatized with 6-aminoquinolyl-N-hydroxysuccinimidyl carbamate (AQC), cleaned up with SPE and dried under vacuum, followed by reconstitution with 50 μl of 0.5% acetonitrile containing 0.1% formic acid. 10 μl of the sample was used for LC-MS/MS analysis carried out in Acquity C18 column (1.8 μm, 2.1 mm×100 mm) using Dionnex Ultimate3000 UHPLC system coupled with Q Exactive mass spectrometer (Thermo Fisher Scientific). Mobile phase consisted of Solvent A: 10 mM ammonium acetate containing 0.1% formic acid and solvent B: acetonitrile containing 0.1% formic acid. Mass spectrometry was performed under spray voltage of 4000/2500V with vaporizer temperature of 250° C., sheath gas and auxillary gas flow rate of 30 and 10 Arb, respectively. The acquisition was performed in Parallel Reaction Monitoring mode at 35000 resolution with a normalized collision energy of 25 eV. The calibration curves were prepared for the individual amino acids and the samples were spiked with internal standards containing deuterated amino acids.

[4] = tested on: eIF2α phosphorylation in Pf3D7 rings; conditions: 250 μM for 6 h, RPMI^-gln medium
Description: Pf3D7 cultures were subjected to two rounds of tight synchronization within a span of 3 h in the previous cycle, followed by one additional synchronization in the subsequent cycle immediately after RBC invasion.

[5] = substrate: Nc1ncnc2c1ncn2[C@@H]1O[C@H](COP(=O)(O)OP(=O)(O)OP(=O)(O)O)[C@@H](O)[C@H]1O; assay: Recombinant PfGS enzyme assay (HPLC glutamine formation / Pi release) and inhibition; format: biochemical, Plasmodium falciparum; conditions: other: Lineweaver-Burk plots; mean±SD, at least three different protein preparations
Description: as §1

[6] = substrate: N; assay: as above; format: biochemical, Plasmodium falciparum; conditions: other: Lineweaver-Burk plots; mean±SD, at least three different protein preparations
Description: as §1

[7] = substrate: N[C@@H](CCC(=O)O)C(=O)O; assay: as above; format: biochemical, Plasmodium falciparum; conditions: other: Lineweaver-Burk plots; mean±SD, at least three different protein preparations
Description: as §1

## CP(=O)(O)CCC(N)C(=O)O (centres unmarked) [PPT, Phosphinothricin]
Pf protein synthesis
  inhibition at 50 µM: 40 to 50%
  inhibition at 250 µM: ~80%
  inhibition at 1000 µM: ~50%
[1]
  Ki: 2.31 ± 1.1 µM
Pf clinical isolates
  growth of Pf clinical samples: could inhibit the growth of Pf clinical samples to the extent that was observed for Pf3D7 strain
[2]; RPMI medium lacking glutamine (RPMI^-gln)
  IC50: ~30 µM
[2]; RPMI medium containing physiological levels (0.5 mM) of glutamine (RPMI^Pgln)
  IC50 in RPMI^Pgln relative to IC50 in RPMI^-gln: ~10 times higher

## C[C@@H]1CC[C@H]2[C@@H](C)C(=O)O[C@@H]3O[C@@]4(C)CC[C@@H]1[C@]32OO4 [ART, artemisinin]
[3]; 700 nM exposure for 6 h, PfCam3.I^R539T cultures, after 72 h
  viable parasites after exposure in RSA: resulted in viable parasites

## CS(=N)(=O)CC[C@H](N)C(=O)O (stereo partly drawn) [MSO, L-methionine sulfoximine]
Pf protein synthesis
  inhibition at 50 µM: 40 to 50%
  inhibition at 250 µM: ~80%
  inhibition at 1000 µM: ~50%
Pf parasites
  free glutamine levels in treated Pf parasites with respect to untreated parasites: did not show a significant decrease
  reduction of free asparagine levels with respect to untreated control: 1.5-2.0 fold
Pf clinical isolates
  growth of Pf clinical samples: could inhibit the growth of Pf clinical samples to the extent that was observed for Pf3D7 strain
[2]
  IC50: ~30 µM
[4]
  phosphorylation of eIF2α in Pf: prominent phosphorylation
[3]; MSO alone for 6 h, PfCam3.I^R539T rings
  inhibition with respect to the untreated control: 10-20%

B1: rPfGS (Plasmodium falciparum glutamine synthetase) (Plasmodium falciparum 3D7) (protein)
chain: T1 sequence (C0H551 1-543)
[5]
  Km: 750 ± 140 µM
[6]
  Km: 530 ± 180 µM
[7]
  Km: 730 ± 210 µM
